What was measured:
Type in all cases: in vivo
[1] = test system: Phakopsora pachyrhizi; experiment: Application on whole plants: leaf disc test with Phakopsora pachyrhizi on glyphosate tolerant soybean (Example 6)
Excerpt: (§1) A synergistic effect exists whenever the action of an active ingredient combination is greater than the action expected from the effect of the individual components.
(§2) The action to be expected (E) for a given active ingredient combination obeys the so-called COLBY formula and can be calculated as follows (COLBY, S. R. “Calculating synergistic and antagonistic responses of herbicide combination”. Weeds, Vol. 15, pages 20-22; 1967):
(§3) ppm=milligrams of active ingredient (=a.i.) per litre of spray mixture X=% action by active ingredient I using p ppm of active ingredient Y=% action by active ingredient II using q ppm of active ingredient.
(§4) According to Colby, the expected (additive) action of active ingredients I+II using p+q ppm of active ingredient is
(§5) If the action actually observed (O) is greater than the expected action (E), then the action of the combination is superadditive, i.e. there is a synergistic effect.
Leaf disc tests were conducted to show the effects of tank mixtures of glyphosate and pesticides or plant activators on Asian soybean rust. The soybean variety tested was brand S40-R9 glyphosate tolerant soybean. The leaf source for the testing was the first trifoliate leaf. Six (6) repetitions for each formulation and at each rate were conducted. […] were cut and inoculated with Phakopsora pachyrhizi (Asian soybean rust (ASR)) one (1) day after treatment. Evaluation of the leaf was conducted ten (10) days after inoculation and the mean percent infestation of the six repetitions is reported in Tables 15-17.
As glyphosate source Touchdown® HiTech or Zapp® QI was used. The fungicides were used as commercial formulations: Bravo® SC500 fungicide comprising chlorothalonil (Syngenta Corp.), Score® EC250 fungicide comprising difenaconazole (Syngenta Corp.) and Mancozeb 80WP fungicide comprising mancozeb. The rates of the active ingredients used in the tests are set in Tables 15-17 as g active ingredient (a.i.)/hectare (ha). The spray volume was 200 l/ha.

[2] = test system: Phakopsora pachyrhizi; experiment: Leaf disc test with Phakopsora pachyrhizi on glyphosate resistant soybean (Example 1)
Excerpt: as §1, §2, §3, §4, §5
A series of leaf disc tests were conducted to show the effects of tank mixtures of glyphosate and fungicides on Asian soybean rust. The soybean variety tested was NK Brand S40-R9 glyphosate resistant soybean. The leaf source for the testing was the first trifoliate leaf. Six (6) repetitions for each formulation and at each rate were conducted. Treatment of the leaf with the recited active ingredients was conducted 29 days after planting. The leaves were inoculated with Phakopsora pachyrhizi (Asian soybean rust (ASR)) one (1) day after treatment. Evaluation of the leaf was conducted ten (10) days after inoculation and the mean percent infestation of the six trials is reported in Table 1.
The glyphosate source was Zapp® QI herbicide (Syngenta Corp.), containing the potassium salt of glyphosate as well as an adjuvant system. The fungicide used was Priori® Xtra (Syngenta Corp.), which is a suspension concentrate containing 200 g/L of azoxystrobin (AZ) and 80 g/L of cyproconazole (CCZ). The rates of the active ingredients used in the tests are set forth in the Table as mg active ingredient (a.i.)/L.

[3] = test system: Phakopsora pachyrhizi; experiment: Leaf disc test with Phakopsora pachyrhizi on glyphosate sensitive soybean, leaf disks treated (Example 4)
Excerpt: as §1, §2, §3, §4, §5
A series of leaf disc tests were conducted to show the effects of tank mixtures of glyphosate and pesticides or plant activators on Asian soybean rust. The soybean variety tested was brand Williams82 glyphosate sensitive soybean. The leaf source for the testing was the first trifoliate leaf. Six (6) repetitions for each formulation and at each rate were conducted. Treatment of the leaf disks with the recited active ingredients was conducted 4 weeks after planting. The leaves were inoculated with Phakopsora pachyrhizi (Asian soybean rust (ASR)) one (1) day after treatment. Evaluation of the leaf was conducted ten (10) days after inoculation and the mean percent infestation of the six repetitions is reported in Tables 8-11.
As glyphosate source Touchdown® HiTech or Zapp® QI was used. The fungicides were used as commercial formulations: Bion® WG50 plant activator comprising acibenzolar-S-methyl (Syngenta Corp.), Opus® SC125 fungicide comprising epoxiconazole commercially (BASF AG), Tilt® EC250 fungicide comprising propiconazole (Syngenta Corp.), Quadris® SC250 fungicide comprising azoxystrobin (Syngenta Corp.). The rates of the active ingredients used in the tests are set in Tables 8-11 as mg active ingredient (a.i.)/L.

[4] = test system: Puccinia recondita; experiment: Greenhouse trial with Puccinia recondita on glyphosate sensitive wheat (Example 3); details: read-out: % activity observed
Excerpt: as §1, §2, §3, §4, §5
Greenhouse tests were conducted to show the effects of tank mixtures of glyphosate and the ortho-substituted phenyl-amide (OPA) fungicides represented by structures F-10, F-5 and F-9 on cereal rust Puccinia recondita. The wheat variety tested was brand Kanzler glyphosate sensitive wheat. Three (3) repetitions for each formulation and at each rate were conducted. Treatment of the plants with the recited active ingredients was conducted preventatively 16 days after planting. The leaves were inoculated with Puccinia recondita one (1) day after treatment. Evaluation of the leaf was conducted […] after inoculation and the mean percent infestation of the three repetitions is reported in Tables 5-7.
The glyphosate source was Zapp® QI herbicide containing the potassium salt of glyphosate as well as an adjuvant system. The compound OPA F-5 used was a compound of formula F-5, wherein the ratio of racemic compounds of formula F-3 (syn) to racemic compounds of formula F-4 (anti) was 9:1. The compound OPA F-9 used was a compound of formula F-9, wherein the ratio of racemic compounds of formula F-7 (trans) to racemic compounds of formula F-8 (cis) was around 100:1. The fungicides used were EC 100 formulations of OPA F-10, OPA F-5 and OPA F-9 which are emulsion concentrates containing 100 ga.i./L. The rates of the active ingredients used in the tests are set in Tables 5-7 as mg active ingredient (a.i.)/L.

[5] = Glyphosate TD HiTech SL523 500 g a.i./ha, Tables 15, 17 (check 60)
[6] = Glyphosate TD HiTech SL523 1500 g a.i./ha, Table 16 (check 49)
[7] = Glyphosate TD HiTech SL523 1500 g a.i./ha, Tables 15, 17 (check 60)
[8] = Glyphosate TD HiTech SL523 2.5 mg a.i./L, Table 9 (check 77)
[9] = Glyphosate TD HiTech SL523 2.5 mg a.i./L, Table 11 (check 80)
[10] = Glyphosate TD HiTech SL523 7.4 mg a.i./L, Table 11 (check 80)
[11] = Glyphosate TD HiTech SL523 7.4 mg a.i./L, Tables 9-10 (check 77)
[12] = Glyphosate TD HiTech SL523 22.2 mg a.i./L
[13] = Glyphosate Zapp QI SL500 22.2 mg a.i./L
[14] = Glyphosate Zapp QI SL500 66.7 mg a.i./L

`O=C(O)CNCP(=O)(O)O` [Glyphosate, glyphosate] showed an Activity observed % [1, 5] of 0%, a Leaf attack % [1, 5] of 68% and an Activity observed % [1, 6] of 44%. For the same compound, the Leaf attack % [1, 6] was 28%, the Activity observed % [1, 7] was 17% and the Leaf attack % [1, 7] was 50%. The “% Leaf attack” value ([2]; Glyphosate 0.1 mg a.i./L (Zapp QI)) was 90%, the “% Leaf attack” value ([2]; Glyphosate 0.39 mg a.i./L (Zapp QI)) was 90% and the “% Leaf attack” value ([2]; Glyphosate 1.56 mg a.i./L (Zapp QI)) was 100%. The “% Leaf attack” value ([2]; Glyphosate 6.25 mg a.i./L (Zapp QI)) was 100%, the “% Leaf attack” value ([2]; Glyphosate 25 mg a.i./L (Zapp QI)) was 100% and the “% Leaf attack” value ([2]; Glyphosate 100 mg a.i./L (Zapp QI)) was 100%. The inhibition at 0.1 µg/mL ([2]; Phakopsora pachyrhizi, foliar, Glyphosate 0.1 mg a.i./L (Zapp QI), read-out: % Activity observed) was 6%, the inhibition at 0.39 µg/mL ([2]; Phakopsora pachyrhizi, foliar, Glyphosate 0.39 mg a.i./L (Zapp QI), read-out: % Activity observed) was 6% and the inhibition at 1.56 µg/mL ([2]; Phakopsora pachyrhizi, foliar, Glyphosate 1.56 mg a.i./L (Zapp QI), read-out: % Activity observed) was 0%. The inhibition at 6.25 µg/mL ([2]; Phakopsora pachyrhizi, foliar, Glyphosate 6.25 mg a.i./L (Zapp QI), read-out: % Activity observed) was 0%, the inhibition at 25 µg/mL ([2]; Phakopsora pachyrhizi, foliar, Glyphosate 25 mg a.i./L (Zapp QI), read-out: % Activity observed) was 0% and the inhibition at 100 µg/mL ([2]; Phakopsora pachyrhizi, foliar, Glyphosate 100 mg a.i./L (Zapp QI), read-out: % Activity observed) was 0%. The Activity observed % [3, 8] was 0%, the Leaf attack % [3, 8] was 80% and the Activity observed % [3, 9] was 8%. The Leaf attack % [3, 9] was 74%, the Activity observed % [3, 10] was 0% and the Leaf attack % [3, 10] was 80%. For the same compound, the Activity observed % [3, 11] was 0%, the Leaf attack % [3, 11] was 80% and the Activity observed % [3, 12] was 0%. For the same compound, the Leaf attack % [3, 12] was 80%, the Activity observed % [3, 13] was 1% and the Leaf attack % [3, 13] was 68%. It also gave an Activity observed % [3, 14] of 1%, a Leaf attack % [3, 14] of 68% and an inhibition at 66 µg/mL ([4]; Glyphosate 66 mg a.i./L (Zapp QI)) of 0%. It also gave an inhibition at 200 µg/mL ([4]; Glyphosate 200 mg a.i./L (Zapp QI)) of 42%.
